Test results reported in PubChem BioAssay (NCI).
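Compound exposure: 48 hours, 5 concentrations, 96-well plates. The concentration for 50% growth inhibition is given as GI50. TGI is the concentration that stops growth completely.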

Columns and labels:
Test in all cases: DTP human tumour cell line panel, 48 h
[1] = tested on: MDA-MB-435
[2] = tested on: SK-MEL-2 melanoma
[3] = tested on: SW-620 colon
[4] = tested on: SK-OV-3 ovarian
[5] = tested on: UO-31 renal
[6] = tested on: HCC-2998 colon
[7] = tested on: BT-549 breast
[8] = tested on: OVCAR-5 ovarian
[9] = tested on: 786-0 renal
[10] = tested on: OVCAR-3 ovarian
[11] = tested on: HCT-116 colon
[12] = tested on: HT29 colon
[13] = tested on: A498 renal
[14] = tested on: A549 NSCLC
[15] = tested on: UACC-257 melanoma
[16] = tested on: HS 578T breast
[17] = tested on: MCF7 breast
[18] = tested on: LOX IMVI melanoma
[19] = tested on: NCI-H23 lung
[20] = tested on: MALME-3M melanoma
[21] = tested on: RXF 393 renal
[22] = tested on: OVCAR-8 ovarian
[23] = tested on: SR leukemia
[24] = tested on: DU-145 prostate
[25] = tested on: HCT-15 colon
[26] = tested on: RPMI-8226 leukemia
[27] = tested on: COLO 205 colon
[28] = tested on: NCI/ADR-RES ovarian
[29] = tested on: KM12 colon
[30] = tested on: SNB-19 CNS
[31] = tested on: SNB-75 CNS
[32] = tested on: T-47D breast
[33] = tested on: M14 melanoma
[34] = tested on: K-562 leukemia
[35] = tested on: EKVX NSCLC
[36] = tested on: HOP-62 NSCLC
[37] = tested on: CAKI-1 renal
[38] = tested on: MOLT-4 leukemia
[39] = tested on: NCI-H460 lung
[40] = tested on: NCI-H226 lung
[41] = tested on: U251 CNS
[42] = tested on: OVCAR-4 ovarian
[43] = tested on: SN12C renal
[44] = tested on: SF-539 CNS
[45] = tested on: TK-10 renal
[46] = tested on: SK-MEL-5 melanoma
[47] = tested on: CCRF-CEM leukemia
[48] = tested on: MDA-MB-231 breast
[49] = tested on: UACC-62 melanoma
[50] = tested on: PC-3 prostate
[51] = tested on: SF-295 CNS
[52] = tested on: SF-268 CNS
[53] = tested on: HL-60(TB) leukemia
[54] = tested on: IGROV1 ovarian
[55] = tested on: ACHN renal
[56] = tested on: HOP-92 NSCLC
[57] = tested on: SK-MEL-28 melanoma

In the case of `CCOC(=O)c1c(NCC(=O)Nc2ccc(Br)cc2)sc2c1CCCC2`, the GI50 [1] is reported as 1.9 µM, the TGI [1] is reported as 5.58 µM and the GI50 [2] is reported as 1.84 µM. For the same molecule, the TGI [2] was 5.49 µM, the GI50 [3] was 2.28 µM and the TGI [3] was 6.1 µM. It also gave a GI50 [4] of 3.49 µM, a TGI [4] of 10.9 µM and a GI50 [5] of 1.5 µM. For the same molecule, the TGI [5] was 3.3 µM, the GI50 [6] was 1.82 µM and the TGI [6] was 3.36 µM. It also gave a GI50 [7] of 1.45 µM, a TGI [7] of 3.97 µM and a GI50 [8] of 2.02 µM. For the same molecule, the TGI [8] was 3.77 µM, the GI50 [9] was 2.26 µM and the TGI [9] was 6.04 µM. The GI50 [10] was 1.61 µM, the TGI [10] was 3.12 µM and the GI50 [11] was 1.63 µM. It also gave a TGI [11] of 3.81 µM, a GI50 [12] of 1.91 µM and a TGI [12] of 3.98 µM. It also gave a GI50 [13] of 1.85 µM, a TGI [13] of 5.67 µM and a GI50 [14] of 2.78 µM. For the same molecule, the TGI [14] was 8.46 µM, the GI50 [15] was 2.8 µM and the TGI [15] was 8.2 µM. It also gave a GI50 [16] of 2.89 µM, a TGI [16] of 32.3 µM and a GI50 [17] of 1.48 µM. It also gave a TGI [17] of 3.51 µM, a GI50 [18] of 0.829 µM and a TGI [18] of 2.81 µM. The GI50 [19] was 1.81 µM, the TGI [19] was 4.6 µM and the GI50 [20] was 1.77 µM. For the same molecule, the TGI [20] was 3.81 µM, the GI50 [21] was 1.34 µM and the TGI [21] was 2.76 µM. It also gave a GI50 [22] of 4 µM, a TGI [22] greater than 100 µM and a GI50 [23] of 1.22 µM. It also gave a TGI [23] of 5.33 µM, a GI50 [24] of 1.68 µM and a TGI [24] of 3.28 µM. The GI50 [25] was 1.38 µM, the TGI [25] was 3.47 µM and the GI50 [26] was 2.09 µM. The TGI [26] was 5.32 µM, the GI50 [27] was 2.01 µM and the TGI [27] was 4.52 µM. The GI50 [28] was 2.6 µM, the TGI [28] was 8.51 µM and the GI50 [29] was 1.97 µM. For the same molecule, the TGI [29] was 4.1 µM, the GI50 [30] was 2.2 µM and the TGI [30] was 6.31 µM. For the same molecule, the GI50 [31] was 2.22 µM, the TGI [31] was 14.3 µM and the GI50 [32] was 1.76 µM. The TGI [32] was 4.61 µM, the GI50 [33] was 1.9 µM and the TGI [33] was 4.9 µM. It also gave a GI50 [34] of 1.66 µM, a TGI [34] of 7.09 µM and a GI50 [35] of 1.81 µM. It also gave a TGI [35] of 4.91 µM, a GI50 [36] of 2.32 µM and a TGI [36] of 5.71 µM. The GI50 [37] was 2.06 µM, the TGI [37] was 7.46 µM and the GI50 [38] was 0.712 µM. For the same molecule, the TGI [38] was 4.66 µM, the GI50 [39] was 1.94 µM and the TGI [39] was 4.31 µM. For the same molecule, the GI50 [40] was 1.72 µM, the TGI [40] was 6.48 µM and the GI50 [41] was 1.51 µM. The TGI [41] was 3.17 µM, the GI50 [42] was 1.74 µM and the TGI [42] was 4.77 µM. It also gave a GI50 [43] of 2.51 µM, a TGI [43] of 7.16 µM and a GI50 [44] of 1.73 µM. The TGI [44] was 3.18 µM, the GI50 [45] was 1.74 µM and the TGI [45] was 3.46 µM. For the same molecule, the GI50 [46] was 1.65 µM, the TGI [46] was 3.08 µM and the GI50 [47] was 0.801 µM. It also gave a TGI [47] of 6.72 µM, a GI50 [48] of 2.08 µM and a TGI [48] of 5.21 µM. The GI50 [49] was 1.48 µM, the TGI [49] was 3.16 µM and the GI50 [50] was 2.46 µM. The TGI [50] was 9.71 µM, the GI50 [51] was 3.95 µM and the TGI [51] was 14.3 µM. It also gave a GI50 [52] of 2.06 µM, a TGI [52] of 8.24 µM and a GI50 [53] of 1.57 µM. The TGI [53] was 4.37 µM, the GI50 [54] was 2.13 µM and the TGI [54] was 12.1 µM. It also gave a GI50 [55] of 1.74 µM, a TGI [55] of 3.29 µM and a GI50 [56] of 1.42 µM. It also gave a TGI [56] of 3.84 µM, a GI50 [57] of 1.71 µM and a TGI [57] of 3.49 µM.
